This note sets out measurements from publication PMC13083723 (Patterns, 2026).

Residues, ends and D or L forms follow the SMILES beside them.

For this assay, the system named is Vero-E6 cells. The assay can be described thus: cells. Format: cell-based. Particulars: for activation at 10 µM: Chlorocebus sabaeus, Vero C1008, 24 h, read-out: PL_Result.

Regarding `CC(CCCCC(=O)Nc1ccc(C(F)(F)F)cc1)NCCc1c[nH]cn1` (stereo not shown) [SPE_A66435872], the activation at 10 µM came to 38.2%. Still for that read-out and setting: the figure for `CC1CCN(C(c2ccc(F)cc2)c2ccc(C(C)C(=O)O)cc2-c2ccc(C(F)(F)F)cc2)CC1` (stereo not shown) [SPE_A66521565] is -6.16%. For the compound `COc1ccc(OC)c(C2C(C#N)=C(N)Oc3[nH]nc(-c4ccc5ccccc5c4)c32)c1` (stereo not shown) [SPE_A67036568], the activation at 10 µM is -6.11%. Consider `CCC(N)C(O)c1ccc(O)c(O)c1` (stereo not shown) [SPE_A68509429], for which the activation at 10 µM was -8.71%. As to `CN1c2ccccc2C(=O)N2CCc3c([nH]c4ccccc34)C21` (stereo not shown) [SPE_A68631409], the activation at 10 µM is -12.1%. In the case of `Clc1ccc(C23CNCC2C3)cc1Cl` (stereo not shown) [SPE_A68942014], the activation at 10 µM is -4.9%.

Take `CCCCCCCCCCCCCCCCCC(=O)OCC(O)[C@H]1OC[C@H](O)[C@H]1O` (stereo partly shown) [SPE_A70197423]: the activation at 10 µM is -4.54%.

On to `NC(Cc1c[nH]c2ccc(O)cc12)C(=O)O` (stereo not shown) [SPE_A73930134], for which the activation at 10 µM was -6.97%. As for `CCCCCCCN(CC)CCCC(O)c1ccc(NS(C)(=O)=O)cc1` (stereo not shown) [SPE_A74391928], the activation at 10 µM is -5.8%. Regarding `C=C(C)CN1CC[C@]23c4c5ccc(O)c4O[C@H]2c2[nH]c4ccccc4c2C[C@@]3(O)C1C5` [SPE_A75769826], the activation at 10 µM was 35%. In the case of `CCn1cc(C(=O)O)c(=O)c2cc(F)c(N3CCNC(C)C3)c(F)c21` (stereo not shown) [SPE_A75850590], the activation at 10 µM was -1.78%. As for `CCCNC(=O)N1N=C(c2ccc(N)cc2)c2cc3c(cc2C1C)OCO3` (stereo not shown) [SPE_A77218119], the activation at 10 µM is 7.61%.

Turning to `CCCCCCCCCCCCCCCC(=O)OC(CC(=O)O)C[N+](C)(C)C` (stereo not shown) [SPE_A77577770], the activation at 10 µM came to 3.73%. With `C[C@]12C=CC(=O)C=C1CCC1C2[C@@H](O)C[C@@]2(C)C1CC[C@]2(O)C(=O)COC(=O)CCC(=O)O` (stereo partly shown) [SPE_A78391468], the activation at 10 µM was found to be 3.52%. Same read-out and setting: in the case of `COc1ccc(OC)c(C(O)CNC(=O)CN)c1` (stereo not shown) [SPE_A79981887] it was 8.02%; in that of `Clc1ccc(C(OCCN2CCCCC2)c2ccccc2)cc1` (stereo not shown) [SPE_A80908310], 72.5%; in that of `CC(C(=O)O)c1cccc(Oc2ccccc2)c1` (stereo not shown) [SPE_A81129465], 5.17%. In the case of `CC(C)CCN1c2nc(Nc3cc(F)c(O)c(F)c3)ncc2N(C)C(=O)C1C` (stereo not shown) [SPE_A81370665], the activation at 10 µM was -5.78%. On the same count and under the same terms, in the case of `Cc1ccc(N2CCN(CCC3NC(=O)c4ccccc43)CC2)cc1C` (stereo not shown) [SPE_A82013137] it was -6.23%; in that of `CC(=O)Oc1cc2c(s1)CCN(C(C(=O)C1CC1)c1ccccc1F)C2` (stereo not shown) [SPE_A83029242], -4.76%.

On to `Cc1cc(C)cc(C(=O)OC2CC3CCC(C2)N3C)c1` (stereo not shown) [SPE_A84389633], for which the activation at 10 µM was found to be 9.75%. For `COC(=O)C1=C(C)NC(C)=C(C(=O)OCC(C)C)C1c1ccccc1[N+](=O)[O-]` (stereo not shown) [SPE_A84465106], the activation at 10 µM was 0.581%. The same measure, in the same setting: the figure for `O=C1NC(O)CCN1[C@@H]1O[C@H](CO)[C@@H](O)[C@H]1O` (stereo partly shown) [SPE_A86248581] is -8.11%; for `O=C(NC(Cc1c[nH]c2ccccc12)C(=O)O)c1ccc(Cl)cc1` (stereo not shown) [SPE_A87983072] it is -4.45%. Still for that read-out and setting: in the case of `COc1cc(Oc2ccnc3cc(OC)c(OC)cc23)ccc1NC(=O)NC(C)c1nccs1` (stereo not shown) [SPE_A88787317] it was -0.267%. In the case of `COc1ccc(CC2NCCc3cc(OC)c(OC)cc32)cc1OC` (stereo not shown) [SPE_A91831168], the activation at 10 µM is -15.9%.

Turning to `Cc1cccc(C)c1NC(=O)C(C)N` (stereo not shown) [SPE_A92670106], the activation at 10 µM was -8.17%. Take `CC(=O)NC1[C@@H](O)OC(CO)[C@@H](O)[C@H]1O` (stereo partly shown) [SPE_A92872453]: the activation at 10 µM is -7.39%. As for `CCC(Oc1ccc(Cl)cc1)C(=O)OC1CC2CCC(C1)N2C` (stereo not shown) [SPE_A92933783], the activation at 10 µM was -0.394%. Take `Clc1ccc(C(Cn2ccnc2)OCc2c(Cl)cccc2Cl)c(Cl)c1` (stereo not shown) [SPE_A93353767]: the activation at 10 µM worked out at 0.354%. The same measure, in the same setting: in the case of `NC1CCN(c2c(F)cc3c(=O)c(C(=O)O)cn(C4CC4)c3c2Cl)C1` (stereo not shown) [SPE_A93964801] it was -2.8%.

In the case of `C[C@H]1CO[C@@H]2Cn3cc(C(=O)NCc4ccc(F)cc4F)c(=O)c(O)c3C(=O)N12` [SPE_A95114378], the activation at 10 µM was -1.46%. Consider `CC1Cc2ccccc2N1NC(=O)c1ccc(Cl)c(S(N)(=O)=O)c1` (stereo not shown) [SPE_A95869247], for which the activation at 10 µM was -11.5%.

Turning to `Cc1ccc(C)c(C(O)CNC(C)C)c1` (stereo not shown) [SPE_A98083480], the activation at 10 µM is 3.82%. For `CCCc1c(-c2ccc(O)cc2)nn(-c2ccc(O)cc2)c1-c1ccc(O)cc1` [SPE_K00312224], the activation at 10 µM was found to be 1.41%. Turning to `Cc1cc2nc3c(=O)[nH]c(=O)nc-3n(C)c2cc1C=O` [SPE_K00486786], the activation at 10 µM is -6.31%. `CN(C)Cc1ccc(-c2nc3cccc4c3n2CCNC4=O)cc1` [SPE_K00615600]: the activation at 10 µM was 6.53%.

For the compound `CCC[C@H](N[C@@H](C)C(=O)N1[C@H](C(=O)O)C[C@@H]2CCCC[C@@H]21)C(=O)O` [SPE_K00768353], the activation at 10 µM is -9.94%. As for `Nc1nc(NC2CC2)cc(-c2cccc(Cl)c2Cl)n1` [SPE_K01054709], the activation at 10 µM was -5.46%. `Cn1nc(-c2ccc(C(F)(F)F)cc2)nc2c(=O)n(C)c(=O)nc1-2` [SPE_K01129913]: the activation at 10 µM was -6.15%. Same read-out and setting: the figure for `COC(=O)CCC(=O)CN` [SPE_K01292611] is -7.57%. With `Nc1ncnc2c1ncn2[C@@H]1O[C@H](CO)[C@@H](O)[C@H]1O` [SPE_K01577834], the activation at 10 µM was -3.02%.

Consider `CCS(=O)(=O)c1cccc(-c2cc(C(=O)NC3CCN(C)CC3)c(C)c3[nH]c4ncc(C)cc4c23)c1` [SPE_K01683783], for which the activation at 10 µM was -6.51%.

As to `CC(C)=CCC[C@](C)(O[C@@H]1O[C@H](CO)[C@@H](O)[C@H](O)[C@H]1O)[C@H]1CC[C@]2(C)[C@@H]1[C@H](O)C[C@@H]1[C@@]3(C)CC[C@H](O)C(C)(C)[C@@H]3CC[C@]12C` [SPE_K01942833], the activation at 10 µM is -8.36%. Turning to `Cc1[nH]c2ccccc2c1CCNCc1ccc(/C=C/C(=O)NO)cc1` [SPE_K02130563], the activation at 10 µM was -9.42%. Consider `COc1ccccc1C(=O)Nc1cccc(NC(=O)c2cccc(C)c2)c1` [SPE_K02160913], for which the activation at 10 µM is -4.26%. As for `C[C@@H](O)[C@H](N)C(=O)N1CCC[C@H]1C(=O)N1CCC[C@H]1C(=O)N[C@H](C(N)=O)[C@@H](C)O` [SPE_K02206208] (H-TPPT-NH2), the PL_Result was -5.35. As for `CCCCc1ccc2[nH]c(NC(=O)OC)nc2c1` [SPE_K02407574], the activation at 10 µM is -11.6%. `COc1ccc2[nH]c3nnc(C)c-3c(NCCOCCO)c2c1` [SPE_K02460719]: the activation at 10 µM was -9.99%.

Regarding `CC(=O)O[C@]1(C(C)=O)CC[C@H]2[C@@H]3C[C@H](C)C4=CC(=O)C=C[C@]4(C)[C@@]3(F)[C@@H](O)C[C@@]21C` [SPE_K02528732], the activation at 10 µM is -9.55%.

As for `O=C1N[C@@H]2[C@@H](O)[C@@H](O)[C@H](O)[C@@H](CO)N2C1=O` [SPE_K02898090], the activation at 10 µM is 7%. The same measure, in the same setting: in the case of `c1ccc(CNCc2ccc(CN3CCCNCCNCCCNCC3)cc2)nc1` [SPE_K03019184] it was -0.191%; in that of `CCCCCCCCCCCCCCCCCCCCCCCCCCCCO` [SPE_K03083257], -15.2%.

For the compound `CCN1C[C@H](C)n2c(c(O)c3c(=O)n(Cc4ccc(F)c(Cl)c4)nc(C(=O)NC)c32)C1=O` [SPE_K03128512], the activation at 10 µM was determined as 7.85%. Still for that read-out and setting: the figure for `CC[N+](CC)(CC)CCOc1ccc(/C=C/c2ccccc2)cc1` [SPE_K03128577] is 8.41%; for `O=C(Nc1c(Cl)cncc1Cl)c1ccc(OC(F)F)c(OCC2CC2)c1` [SPE_K03194791] it is -2.86%; for `NCCCCCCCCCCNS(=O)(=O)c1cccc2c(Cl)cccc12` [SPE_K03301001] it is 2.75%. For `COc1cc(C=O)c([N+](=O)[O-])cc1OC` [SPE_K03564313], the activation at 10 µM is 2.17%.

With `C/C(=C\c1csc(C)n1)[C@@H]1C[C@@H]2O[C@]2(C)CCC[C@H](C)[C@H](O)[C@@H](C)C(=O)C(C)(C)[C@@H](O)CC(=O)N1` [SPE_K03601870], the activation at 10 µM was -10.6%. Turning to `CCN(CCNC(=O)Nc1ccccc1Br)c1cccc(C)c1` [SPE_K03665769], the activation at 10 µM is -3.7%. Regarding `Nc1ncc(Cc2ccc(Br)cc2)s1` [SPE_K03808106], the activation at 10 µM is -0.249%.

On to `N[C@@H](CC(=O)N1CCn2c(nnc2C(F)(F)F)C1)Cc1n[nH]c2c(F)c(F)ccc12` [SPE_K04035716], for which the activation at 10 µM was -1.31%. `COc1c(O)cc2c(c1O)[C@@H]1O[C@H](CO)[C@@H](O)[C@H](O)[C@H]1OC2=O` [SPE_K04176066]: the activation at 10 µM came to 1.1%. Take `CC(C)C[C@@H](C(=O)N[C@@H](Cc1ccc(OCc2ccccc2)cc1)C(=O)NC(C)(C)C)N(C)Cc1ccc(C(C)(C)C)cc1` [SPE_K04426574]: the activation at 10 µM is -3.22%.

Consider `Clc1ccc(Cn2c(CN3CCCC3)nc3ccccc32)cc1` [SPE_K04704168], for which the activation at 10 µM was found to be 18%. Regarding `C[C@H](NC(=O)/C(C#N)=C/c1cccc(Br)n1)c1ccccc1` [SPE_K05445342], the activation at 10 µM worked out at 3.2%.

Turning to `Cc1nnc(C(=O)NC(C)(C)c2nc(C(=O)NCc3ccc(F)cc3)c(O)c(=O)n2C)o1` [SPE_K05658747], the activation at 10 µM is -12.8%.

With `CCCCCCCCCCCCOS(=O)(=O)O` [SPE_K05680146], the activation at 10 µM turned out to be 12.1%.

Consider `Cc1cccc(C)c1NC(=O)c1ccccc1C(=O)O` [SPE_K05724540], for which the activation at 10 µM is -3.96%. On to `COC(F)(F)C(Cl)Cl` [SPE_K06152156], for which the activation at 10 µM was -2.25%. `CCN(CC)CCOCCOC(=O)C1(c2ccccc2)CCCC1` [SPE_K06181161]: the activation at 10 µM came out at 11.3%. On the same count and under the same terms, the figure for `CC[C@@H]([C@H](C)O)n1ncn(-c2ccc(N3CCN(c4ccc(OC[C@@H]5CO[C@@](Cn6cncn6)(c6ccc(F)cc6F)C5)cc4)CC3)cc2)c1=O` [SPE_K06222852] is -4.55%; for `Cc1cc(/C=C/C#N)cc(C)c1Nc1ccnc(Nc2ccc(C#N)cc2)n1` [SPE_K06240250] it is -8.07%.
